# Test: differential scanning calorimetry (DSC), heat flow as a function of temperature
# Assay type: physicochemical
# Method: This is also an exothermic event. Upon heating, the cryoablation gel melts at about −10° C.
# An exothermic event begins as the sample is cooled to about −18° C.; and the phase changing event is more than 10° C. wide. This process is more than 4×more exothermic than the crystallization of cryoablation gel, showing that the water crystallization process is much more chaotic with high entropy and takes a while to reach an ordered state. On the contrary, the cryoablation gel is a more highly ordered substance and the crystallization event produces less energy due to the relatively lower entropy.
smiles,measurement,setting,value
O [water],temperature of phase change (exothermic event) on cooling,cooling,about −18 °C
same,width of phase changing event,cooling,more than 10 °C
same,exothermicity of crystallization relative to cryoablation gel,water versus cryoablation gel,more than 4 ×
